{"source": "patent US20080187492A1", "about": "“Drosophila Models For Diseases Affecting Learning and Memory” (priority 2004, published 2008)", "format_in_all_cases": "in vivo, Drosophila melanogaster", "key": {"[1]": {"test_system": "FS (dFMR1-3+frame shifted rescue fragment) flies", "experiment": "Quality of naive courtship (progress to later courtship steps), FS flies", "experimental": "In order to determine if MPEP can get into the Drosophila central nervous system (CNS) through feeding behavior, we mixed MPEP into the food at a concentration of 1,000 μg/ml (433.0 μM). Males were raised on CT food and then placed on either CT or M food. Naive males were placed in the training chamber for one hour with no female, and then placed with a virgin target female for a ten-minute interval. The naive courtship behavior was reduced by high MPEP concentration in Rescue (p<0.0001) and FS (p<0.0005) lines, and it was depressed to similar levels by high MPEP treatment in the Rescue and FS groups (FIG. 2A). […] FIG. 2B dissects the steps involved in naive courtship behavior. […] Lowering the dose of MPEP and examining naive courtship. We next decided to try a lower dose of MPEP to 200 μg/ml (86.6 μM) mixed into the food of the Drosophila. In these experiments flies were placed on either CT or M food in the larval stage and then placed on either CT of M food within four hours of eclosion. […] Therefore giving this drug in adulthood only is effective in enhancing naive courtship behavior. […] The MPEP in development can rescue the naive courtship phenotype regardless of whether or not the flies receive it as adults. Further analysis of the quality of courtship that was performed by naive males was assessed by binning the number of males to advance to a particular phase of courtship for each genotype and pharmacologic treatment (FIG. 3B)."}, "[2]": {"test_system": "Rescue (dFMR1-3+wild type rescue fragment) flies", "experiment": "Quality of naive courtship (progress to later courtship steps), Rescue flies", "settings": "5 day old", "experimental": "In order to determine if MPEP can get into the Drosophila central nervous system (CNS) through feeding behavior, we mixed MPEP into the food at a concentration of 1,000 μg/ml (433.0 μM). Males were raised on CT food and then placed on either CT or M food. Naive males were placed in the training chamber for one hour with no female, and then placed with a virgin target female for a ten-minute interval. The naive courtship behavior was reduced by high MPEP concentration in Rescue (p<0.0001) and FS (p<0.0005) lines, and it was depressed to similar levels by high MPEP treatment in the Rescue and FS groups (FIG. 2A). […] FIG. 2B dissects the steps involved in naive courtship behavior. […] Lowering the dose of MPEP and examining naive courtship. We next decided to try a lower dose of MPEP to 200 μg/ml (86.6 μM) mixed into the food of the Drosophila. In these experiments flies were placed on either CT or M food in the larval stage and then placed on either CT of M food within four hours of eclosion. […] Therefore giving this drug in adulthood only is effective in enhancing naive courtship behavior. […] Further analysis of the quality of courtship that was performed by naive males was assessed by binning the number of males to advance to a particular phase of courtship for each genotype and pharmacologic treatment (FIG. 3B)."}, "[3]": {"test_system": "Rescue (dFMR1-3+wild type rescue fragment) flies", "experiment": "Conditioned courtship: immediate recall (0 minute memory), Rescue flies", "experimental": "To assess immediate recall (0 minute memory), after the one hour training session with a previously mated female, the male was placed with a virgin target female for a ten-minute interval. This CI was then compared to the courtship level of naive males that had been placed in the training chamber for one hour with no female, before introducing them to a virgin target female for a ten-minute interval. In FIG. 1B the w1118 and Rescue lines show depression of courtship activity after training compared to naive trained males (p<0.005). However, dFMR1-3 and FS mutant lines court just as vigorously after training with a previously mated female as naive trained males, therefore these flies display no experience dependent behavioral plasticity at the time point of immediate recall. This is in spite of the fact that they court to similar levels as w1118 and Rescue lines during the training period. This implicates a deficit in synaptic plasticity for the two mutant lines at immediate recall (0 minute memory). This robust deficit in behavioral plasticity is a critical extension of the previous models of Fragile X syndrome in model organisms, since this has been completely missing in Drosophila models and is subtle in murine models, and particularly since this may be one of the most devastating aspects of the human disease.\nImmediate recall. […]"}, "[4]": {"test_system": "FS (dFMR1-3+frame shifted rescue fragment) flies", "experiment": "Conditioned courtship: learning during training, FS flies", "settings": "MPEP 200 μg/ml in development, adulthood or both", "excerpt": "The role of dFMR1 in learning during training and immediate recall. The flies used were w1118 (the background stock from which the mutation was derived), dFMR1-3 (the mutation lacking dFMR1 expression), Rescue (dFMR1-3+wild type rescue fragment) and FS (frame shift, dFMR1-3+frame shifted rescue fragment) all from Dockendorff et al, 2002. To assess learning during training male flies are placed in a training chamber with a previously mated female for one hour. The amount of time the male spent courting in the initial ten-minute interval was compared to the amount of time the male spent courting the female target in the final ten-minute interval (FIG. 1). […] It is important to note that the level of courtship behavior towards the previously mated female is similar between the two mutant groups and the w1118 and Rescue groups. […] This is important to note, because without actively courting, the male fly cannot be trained (Tompkins et al. 1982; 1983).\nLearning during training. In order to assess learning during training, the male flies were placed in a training chamber with a previously mated female for one hour. The amount of time the male spent courting in the first ten-minute interval was compared to the amount of time the male spent courting the female target in the last ten-minute interval (FIG. 4A).\nBehavioral Training and Testing. […]"}}}
{"smiles": "Cc1cccc(C#Cc2ccccc2)n1", "note": "[MPEP, 2-methyl-6-(phenylethynyl)pyridine]", "values": [{"measurement": "quality of naive courtship", "setting": "[1]; 20-day-old, MPEP (86.6 μM)", "value": "in adulthood, but not in development alone, MPEP treatment can affect the quality of naive courtship behavior"}, {"measurement": "quality of naive courtship", "setting": "[1]; 5 day old, MPEP 200 μg/ml in development or adulthood", "value": "can affect the quality of naive courtship behavior"}, {"measurement": "steps involved in naive courtship behavior", "setting": "[1]; 5 day old, MPEP 1,000 μg/ml in adulthood, relative to CT-CT Rescue", "value": "failed to progress to later steps in courtship behavior"}, {"measurement": "quality of naive courtship", "setting": "[2]; MPEP 200 μg/ml in adulthood only (CT-M)", "value": "progressed to later phases of courtship to similar levels as all other groups"}, {"measurement": "steps involved in naive courtship behavior", "setting": "[2]; MPEP 1,000 μg/ml in adulthood, relative to CT-CT Rescue", "value": "failed to progress to later steps in courtship behavior"}, {"measurement": "immediate recall", "setting": "[3]; 20-day-old, MPEP in development or adulthood or both", "value": "does not adversely affect immediate recall"}, {"measurement": "immediate recall", "setting": "[3]; 5 day old, MPEP 200 μg/ml in development or adulthood or both", "value": "does not adversely affect immediate recall"}, {"measurement": "learning during training", "setting": "[4]; 20-day-old", "value": "able to restore learning during training"}, {"measurement": "learning during training", "setting": "[4]; 5 day old", "value": "does not adversely affect learning during training"}]}
